Laboratory results reported in US9981923B2, “1,2,3 Triazole antifungal agents and preparation thereof” (COUNCIL OF SCIENTIFIC & INDUSTRIAL RESEARCH, priority 2014, dated 2018).
Values after ≈ are worked out from the molar mass of the structure shown. Where two headings read alike, the source gives them in different places.

Key:
[1] = system: Candida albicans ATCC 24433; assay: Antifungal susceptibility by microbroth dilution (CLSI); type: cell-based; settings: for MIC: Candida albicans, ATCC24433
Procedure: (§1) The synthesized compounds were evaluated for antifungal susceptibility by microbroth dilution method according to the recommendations of the Clinical Laboratory Standards Institute (CLSI 2008). Briefly, appropriate amount of compounds were dissolved in dimethyl sulfoxide to get 100× final strength. The stock was then diluted 1:50 in RPMI/YPG medium and 200 μl from this was added to the first row of a 96-well microtitre plate. The compounds were serially diluted two fold in successive wells to get a range of 1-128 μg/ml. Fungal yeast cells (˜2×10^3 cfu/mL), freshly grown in YPG broth in logarithmic phase, were suspended in the medium and inoculated (100 μl) in the wells of the plate. For filamentous fungi, 2×10^4 spores/mL were added. The microtitre plate was incubated for 48 h, and the absorbance was measured at 600 nm by using microtitre plate reader to assess cell growth.

[2] = system: Cryptococcus neoformans ATCC 34664; assay: as above; type: cell-based; settings: for MIC: Cryptococcus neoformans, ATCC34664
Procedure: as §1

[3] = system: Aspergillus niger ATCC 10578; assay: as above; type: cell-based; settings: for MIC: Aspergillus niger
Procedure: as §1

[4] = system: Candida glabrata NCYC 388; assay: as above; type: cell-based; settings: for MIC: Nakaseomyces glabratus
Procedure: as §1

[5] = system: Aspergillus fumigatus MCC 1046; assay: as above; type: cell-based; settings: for MIC: Aspergillus fumigatus
Procedure: as §1

ergosterol = assay: Effect of the compounds on sterol profile (spectrophotometric ergosterol quantitation); type: cell-based, C. albicans ATCC 24433; settings: for ergosterol depletion (sterol profile, height of absorbance peaks 220-300 nm): C. albicans ATCC 24433, 24 h, 0.5 MIC and MIC of the lead compounds
Procedure: Inhibition of lanosterol 14 α-demethylase by azoles results in depletion of ergosterol. The depletion can be quantified by spectrophotometry. Briefly, Overnight grown C. albicans ATCC 24433 (1×10^6 cfu/ml) cells were inoculated in a series of flasks containing 50 ml of Yeast extract Peptone Glucose (YPG) broth containing […] of fluconazole per ml as well as 0.5 MIC and MIC of the lead compounds. The cultures were incubated for 24 h with shaking at 30° C. The stationary-phase cells were harvested by centrifugation […] and washed once with sterile distilled water. The net wet weight of the cell pellet was determined. Three milliliters of 25% alcoholic potassium hydroxide solution (25 g of […] and 35 ml of sterile distilled water, brought to 100 ml with 100% ethanol), was added to 125 mg of pellet and vortex mixed for 1 min. Cell suspensions were transferred to sterile borosilicate glass screw-cap tubes and were incubated in an 85° C. water bath for 1 h. Following incubation, tubes were allowed to cool to room temperature. Sterols were then extracted by addition of a mixture of 1 ml of sterile distilled water and 3 ml of n-heptane followed by vigorous vortex mixing for 3 min. The heptane layer was transferred to a clean borosilicate glass screw-cap tube. The sterol extract was scanned spectrophotometrically between 220 and 300 nm with a Spectrophotometer.

[6] = system: Candida albicans ATCC 10231; assay: Antifungal susceptibility by microbroth dilution (CLSI); type: cell-based; settings: for MIC: Candida albicans, ATCC10231
Procedure: as §1

C. tropicalis ATCC 750 = assay: as above; type: cell-based; settings: Table 2; for MIC: Candida tropicalis, ATCC750
Procedure: as §1

[7] = Table 1, 48 h, >90% inhibition of growth, range 1-128 μg/ml, read-out: MIC
[8] = Table 1, 48 h, >90% inhibition of growth, read-out: MIC
[9] = ATCC10578, Table 1, 48 h, >90% inhibition of growth, read-out: MIC
[10] = NCYC388, Table 1, 48 h, >90% inhibition of growth, read-out: MIC
[11] = MCC1046, Table 1, 48 h, >90% inhibition of growth, read-out: MIC
[12] = ATCC10578, Table 2, read-out: MIC values
[13] = NCYC388, Table 2, read-out: MIC values
[14] = MCC1046, Table 2, read-out: MIC values

SMILES: Cc1cc(C)cc(C(O)c2cn(-c3cc(Cl)ccc3O)nn2)c1 (stereo not shown) [Compound 1aa, 4-Chloro-2-(4-((3,5-dimethylphenyl)(hydroxy)methyl)-1H-1,2,3-triazol-1-yl)phenol]
- melting point: 191 to 193 °C
- MIC [1, 7]: 64 µg/mL (≈ 194 µM)
- MIC [2, 8]: 32 µg/mL (≈ 97 µM)
- MIC [3, 9]: 64 µg/mL (≈ 194 µM)
- MIC [4, 10]: 32 µg/mL (≈ 97 µM)
- MIC [5, 11]: 64 µg/mL (≈ 194 µM)

SMILES: Oc1ccc(Cl)cc1-n1cc(C(O)c2cc(C(F)(F)F)cc(C(F)(F)F)c2)nn1 (stereo not shown) [Compound 1ba, 2-(4-((3,5-Bis(trifluoromethyl)phenyl)(hydroxy)methyl)-1H-1,2,3-triazol-1-yl)-4-chlorophenol]
- melting point: 211 to 213 °C
- MIC [1, 7]: 128 µg/mL (≈ 292 µM)
- MIC [2, 8]: 16 µg/mL (≈ 36.6 µM)
- MIC [3, 9]: > 128 µg/mL
- MIC [4, 10]: 128 µg/mL (≈ 292 µM)
- MIC [5, 11]: > 128 µg/mL

SMILES: Oc1ccc(Cl)cc1-n1cc(CC(O)c2ccccc2)nn1 (stereo not shown) [Compound 1ea, 4-Chloro-2-(4-(2-hydroxy-2-phenylethyl)-1H-1,2,3-triazol-1-yl)phenol]
- melting point: 148 to 150 °C
- MIC [1, 7]: 64 µg/mL (≈ 203 µM)
- MIC [2, 8]: > 128 µg/mL
- MIC [3, 9]: 64 µg/mL (≈ 203 µM)
- MIC [4, 10]: 128 µg/mL (≈ 405 µM)
- MIC [5, 11]: 128 µg/mL (≈ 405 µM)

SMILES: Oc1cc(Cl)ccc1-n1cc(CC(O)c2ccccc2)nn1 (stereo not shown) [Compound 1eb, 5-Chloro-2-(4-(2-hydroxy-2-phenylethyl)-1H-1,2,3-triazol-1-yl)phenol]
- melting point: 171 to 172 °C

SMILES: Oc1ccc(Cl)cc1-n1cc(CC(O)c2cc(C(F)(F)F)cc(C(F)(F)F)c2)nn1 (stereo not shown) [Compound 1ja, 2-(-4-(2-(3,5-Bis(trifluoromethyl)phenyl)-2-hydroxyethyl)-1,2,3-triazol-1-yl)-4-chlorophenol]
- melting point: 181 to 183 °C

SMILES: Oc1cc(Cl)ccc1-n1cc(CC(O)c2cc(C(F)(F)F)cc(C(F)(F)F)c2)nn1 (stereo not shown) [Compound 1jb, 2-(4-(2-(3,5-Bis(trifluoromethyl)phenyl)-2-hydroxyethyl)-1H-1,2,3-triazol-1-yl)-5-chlorophenol]
- melting point: 192 to 194 °C

SMILES: CC(O)(c1ccccc1)c1cn(-c2cc(Cl)ccc2O)nn1 (stereo not shown) [Compound 2ca]
- inhibition of lanosterol 14 α-demethylase enzyme (concluded from ergosterol depletion) (ergosterol; C. albicans ATCC 24433 sterol profile): potent inhibitors

SMILES: CC(O)(c1ccccc1)c1cn(-c2ccc(Cl)cc2O)nn1 (stereo not shown) [Compound 2cb, 5-Chloro-2-(4-(1-hydroxy-1-phenylethyl)-1H-1,2,3-triazol-1-yl)phenol]
- melting point: 232 to 234 °C
- ergosterol depletion (sterol profile, height of absorbance peaks 220-300 nm) (ergosterol): no ergosterol depletion was observed

SMILES: CC(O)(Cc1cn(-c2ccc(Cl)cc2O)nn1)c1ccccc1 (stereo not shown) [Compound 2fb, 5-Chloro-2-(4-(2-hydroxy-2-phenylpropyl)-1H-1,2,3-triazol-1-yl)phenol]
- melting point: 189 to 190 °C

SMILES: CCCCC(O)(Cc1cn(-c2cc(Cl)ccc2O)nn1)c1ccccc1 (stereo not shown) [Compound 2ha, 4-chloro-2-(4-(2-hydroxy-2-phenylhexyl)-1H-1,2,3-triazol-1-yl)phenol]
- melting point: 165 to 167 °C

SMILES: Oc1ccc(Cl)cc1-n1cc(CC(O)(c2ccccc2)c2ccccc2)nn1 [Compound 2ia, 4-Chloro-2-(4-(2-hydroxy-2,2-diphenylethyl)-1H-1,2,3-triazol-1-yl)phenol]
- melting point: 194 to 196 °C
- MIC [1, 7]: 128 µg/mL (≈ 327 µM)
- MIC [2, 8]: > 128 µg/mL
- MIC [3, 9]: > 128 µg/mL
- MIC [4, 10]: 128 µg/mL (≈ 327 µM)
- MIC [5, 11]: 128 µg/mL (≈ 327 µM)

SMILES: Oc1cc(Cl)ccc1-n1cc(CC(O)(c2ccccc2)c2ccccc2)nn1 [Compound 2ib, 5-Chloro-2-(-4-(2-hydroxy-2,2-diphenylethyl)-1H-1,2,3-triazol-1-yl)phenol]
- melting point: 210 to 212 °C

SMILES: CC(O)(Cc1cn(-c2ccc(Cl)cc2O)nn1)c1cc(C(F)(F)F)cc(C(F)(F)F)c1 (stereo not shown) [Compound 2sb, 2-(4-(2-(3,5-Bis(trifluoromethyl)phenyl)-2-hydroxypropyl)-1H-1,2,3-triazol-1-yl)-5-chlorophenol]
- melting point: 156 to 158 °C

SMILES: CC(O)(Cc1cn(-c2cc(Cl)ccc2O)nn1)c1ccc(Cl)cc1 (stereo not shown) [Compound 3ea, 4-Chloro-2-(4-(2-(4-chlorophenyl)-2-hydroxypropyl)-1H-1,2,3-triazol-1-yl)phenol]
- MIC ([1]; Table 2, read-out: MIC values): 16 µg/mL (≈ 43.9 µM)
- MIC ([2]; Table 2, read-out: MIC values): 32 µg/mL (≈ 87.9 µM)
- MIC [3, 12]: 64 µg/mL (≈ 176 µM)
- MIC ([6]; Table 2, read-out: MIC values): 8 µg/mL (≈ 22 µM)
- MIC (C. tropicalis ATCC 750): 64 µg/mL (≈ 176 µM)
- MIC [4, 13]: 16 µg/mL (≈ 43.9 µM)
- MIC [5, 14]: 64 µg/mL (≈ 176 µM)

SMILES: CC(O)(Cc1cn(-c2ccc(Cl)cc2O)nn1)c1ccc(Cl)cc1 (stereo not shown) [Compound 3eb, 5-Chloro-2-(4-(2-(4-chlorophenyl)-2-hydroxypropyl)-1H-1,2,3-triazol-1-yl)phenol]
- MIC ([1]; Table 2, read-out: MIC values): 32 µg/mL (≈ 87.9 µM)
- MIC ([2]; Table 2, read-out: MIC values): 32 µg/mL (≈ 87.9 µM)
- MIC [3, 12]: 64 µg/mL (≈ 176 µM)
- MIC ([6]; Table 2, read-out: MIC values): 16 µg/mL (≈ 43.9 µM)
- MIC (C. tropicalis ATCC 750): 64 µg/mL (≈ 176 µM)
- MIC [4, 13]: 32 µg/mL (≈ 87.9 µM)
- MIC [5, 14]: 64 µg/mL (≈ 176 µM)

SMILES: CC(O)(Cc1cn(-c2ccc(Cl)cc2O)nn1)c1ccc(Br)cc1 (stereo not shown) [Compound 3fb, 2-(4-(2-(4-Bromophenyl)-2-hydroxypropyl)-1H-1,2,3-triazol-1-yl)-5-chlorophenol]
- MIC ([1]; Table 2, read-out: MIC values): 16 µg/mL (≈ 39.2 µM)
- MIC ([2]; Table 2, read-out: MIC values): 32 µg/mL (≈ 78.3 µM)
- MIC [3, 12]: 64 µg/mL (≈ 157 µM)
- MIC ([6]; Table 2, read-out: MIC values): 16 µg/mL (≈ 39.2 µM)
- MIC (C. tropicalis ATCC 750): 64 µg/mL (≈ 157 µM)
- MIC [4, 13]: 32 µg/mL (≈ 78.3 µM)
- MIC [5, 14]: 64 µg/mL (≈ 157 µM)

SMILES: CC(O)(Cc1cn(-c2ccc(F)cc2O)nn1)c1ccc(Br)cc1 (stereo not shown) [Compound 3fc, 2-(4-(2-(4-Bromophenyl)-2-hydroxypropyl)-1H-1,2,3-triazol-1-yl)-5-fluorophenol]
- MIC ([1]; Table 2, read-out: MIC values): 8 µg/mL (≈ 20.4 µM)
- MIC ([2]; Table 2, read-out: MIC values): 64 µg/mL (≈ 163 µM)
- MIC [3, 12]: 128 µg/mL (≈ 326 µM)
- MIC ([6]; Table 2, read-out: MIC values): 16 µg/mL (≈ 40.8 µM)
- MIC (C. tropicalis ATCC 750): 128 µg/mL (≈ 326 µM)
- MIC [4, 13]: 64 µg/mL (≈ 163 µM)
- MIC [5, 14]: 64 µg/mL (≈ 163 µM)

SMILES: CN(C)c1ccc(C(O)Cc2cn(-c3cc(Cl)ccc3O)nn2)cc1 (stereo not shown) [Compound 3ga, 4-Chloro-2-(4-(2-(4-(dimethylamino)phenyl)-2-hydroxyethyl)-1H-1,2,3-triazol-1-yl)phenol]
- MIC values ([1]; Table 2): 64 µg/mL (≈ 178 µM)
- MIC values ([2]; Table 2): 64 µg/mL (≈ 178 µM)
- MIC values ([3]; Table 2): >256 µg/mL
- MIC values ([6]; Table 2): 16 µg/mL (≈ 44.6 µM)
- MIC values (C. tropicalis ATCC 750): >256 µg/mL
- MIC values ([4]; Table 2): 16 µg/mL (≈ 44.6 µM)
- MIC values ([5]; Table 2): >256 µg/mL

SMILES: OC(Cn1cncn1)(Cn1cncn1)c1ccc(F)cc1F [Fluconazole, reference compound]
- ergosterol depletion (sterol profile, height of absorbance peaks 220-300 nm) (ergosterol): dose-dependent decrease in the height of the absorbance peaks
- MIC [1, 7]: 2 µg/mL (≈ 6.53 µM)
- MIC [2, 8]: 32 µg/mL (≈ 104 µM)
- MIC ([3]; ATCC10578, 48 h): > 128 µg/mL
- MIC [6, 8]: 8 µg/mL (≈ 26.1 µM)
- MIC ([4]; NCYC388, 48 h): > 128 µg/mL
- MIC ([5]; MCC1046, 48 h): > 128 µg/mL
